Assay results as given in US10105357B2, “Indication of antibiotic drugs for preparation of cancer inhibition pharmaceutical composition” (LAUNX BIOMEDICAL CO., LTD., priority 2014, dated 2018).
Counter-ions that a name gives are not always drawn. Like-named read-outs stand apart in the source and are kept apart here.

What was measured:
[1] = system: HCT116 (p53+) (Colorectal Carcinoma)
[2] = system: HI650 (Lung Adenocarcinoma); assay: Cell viability analysis, lung cancer HI650; type: cell-based, human; details: Homo sapiens, NCI-H1650, 72 h
AsPC-1 = assay: Cell viability analysis, pancreatic cancer AsPC-1; type: cell-based, human; details: Homo sapiens, ASPC1, 72 h, read-out: The results of antibiotic drug inhibiting cancer cell lines (cell viability analysis), AsPC-1
T24 = assay: Cell viability analysis, bladder cancer T24; type: cell-based, human; details: Homo sapiens, T-24, 72 h, read-out: The results of antibiotic drug inhibiting cancer cell lines (cell viability analysis), T24
[3] = system: AGS (Gastric Adenocarcinoma); assay: Cell viability analysis, gastric cancer AGS; type: cell-based, human; details: Homo sapiens, 72 h
[4] = system: C-33A (Cervical carcinoma); assay: Cell viability analysis, cervical cancer C-33A; type: cell-based, human; details: Homo sapiens, C-33-A, 72 h, read-out: The results of antibiotic drug inhibiting cancer cell lines (cell viability analysis), C-33A
[5] = system: MDA-MB-231 (Mammary Gland, Adenocarcinoma); assay: Cell viability analysis, breast cancer MDA-MB-231; type: cell-based, human; details: Homo sapiens, MDA-MB-231, 72 h, read-out: The results of antibiotic drug inhibiting cancer cell lines (cell viability analysis), MDA-MB231
[6] = system: HeLa (Cervix Adenocarcinoma); assay: Cell viability analysis, cervical cancer HeLa; type: cell-based, human; details: Homo sapiens, HeLa, 72 h
[7] = system: BCC (basal cell carcinoma); assay: Cell viability analysis, skin cancer BCC; type: cell-based, human; details: Homo sapiens, 72 h, read-out: The results of antibiotic drug inhibiting cancer cell lines (cell viability analysis), BCC
TOV-21G = assay: Cell viability analysis, ovarian cancer TOV-21G; type: cell-based, human; details: Homo sapiens, TOV21G, 72 h, read-out: The results of antibiotic drug inhibiting cancer cell lines (cell viability analysis), TOV-21G
U-2OS = assay: Cell viability analysis, osteosarcoma U-2OS; type: cell-based, human; details: Homo sapiens, U2OS, 72 h, read-out: The results of antibiotic drug inhibiting cancer cell lines (cell viability analysis), U2OS
[8] = system: PC3 (p53−) (Prostate Adenocarcinoma); assay: Cell viability analysis, prostate cancer PC3; type: cell-based, human; details: Homo sapiens, 72 h
BxPC-3 = assay: Cell viability analysis, pancreatic cancer BxPC-3; type: cell-based, human; details: Homo sapiens, BXPC-3, 72 h, read-out: The results of antibiotic drug inhibiting cancer cell lines (cell viability analysis), BxPC-3
cancer cell lines = assay: Cell viability analysis (WST-1) on cancer cell lines; type: cell-based, human; details: drug 10 μM, 72 hours, WST-1; Table 3
[9] = system: Hep3B (hepatocellular carcinoma); assay: Cell viability analysis, hepatic cancer Hep3B; type: cell-based, human; details: Homo sapiens, Hep3B, 72 h, read-out: The results of antibiotic drug inhibiting cancer cell lines (cell viability analysis), Hep3B
[10] = system: MKN-45 (Gastric Adenocarcinoma); assay: Cell viability analysis, gastric cancer MKN-45; type: cell-based, human; details: Homo sapiens, MKN-45, 72 h
[11] = system: A549 (Lung Adenocarcinoma); assay: Cell viability analysis, lung cancer A549; type: cell-based, human; details: Homo sapiens, A549, 72 h
[12] = system: 786-O (Renal adenocarcinoma); assay: Cell viability analysis, renal cancer 786-O; type: cell-based, human; details: Homo sapiens, 786-0, 72 h, read-out: The results of antibiotic drug inhibiting cancer cell lines (cell viability analysis), 786-O
[13] = system: TSGH-8301 (Urinary Bladder Carcinoma); assay: Cell viability analysis, bladder cancer TSGH-8301; type: cell-based, human; details: Homo sapiens, 72 h
[14] = system: SAS (Tongue squamous cell carcinoma); assay: Cell viability analysis, tongue cancer SAS; type: cell-based, human; details: Homo sapiens, 72 h, read-out: The results of antibiotic drug inhibiting cancer cell lines (cell viability analysis), SAS
[15] = system: LoVo (Colorectal Adenocarcinoma); assay: Cell viability analysis, colon cancer LoVo; type: cell-based, human; details: Homo sapiens, LoVo, 72 h
[16] = system: MCF7 (Mammary Gland, Adenocarcinoma); assay: Cell viability analysis, breast cancer MCF7; type: cell-based, human; details: Homo sapiens, MCF7, 72 h
[17] = system: A375 (Amelanotic Melanoma); assay: Cell viability analysis, skin cancer A375; type: cell-based, human; details: Homo sapiens, A-375, 72 h
[18] = system: HepG2 (Hepatocellular Carcinoma); assay: Cell viability analysis, hepatic cancer HepG2; type: cell-based, human; details: Homo sapiens, HepG2, 72 h
[19] = system: HL-60 (Acute Promyelocytic Leukemia); assay: Cell viability analysis, leukemia HL-60; type: cell-based, human; details: Homo sapiens, HL-60, 72 h, read-out: cell viability (survival rate), HL-60, drug 10 μM, 72 hours, WST-1, OD450 nm
NIH: OVCAR-3 = assay: Cell viability analysis, ovarian cancer NIH: OVCAR-3; type: cell-based, human; details: Homo sapiens, OVCAR-3, 72 h, read-out: The results of antibiotic drug inhibiting cancer cell lines (cell viability analysis), NIH-OVCAR-3
[20] = read-out: The results of antibiotic drug inhibiting cancer cell lines (cell viability analysis), H1650, H1650, repeated experiment
[21] = read-out: The results of antibiotic drug inhibiting cancer cell lines (cell viability analysis), AGS, repeated experiment
[22] = read-out: The results of antibiotic drug inhibiting cancer cell lines (cell viability analysis), HeLa, repeated experiment
[23] = read-out: The results of antibiotic drug inhibiting cancer cell lines (cell viability analysis), PC-3, PC-3, repeated experiment
[24] = read-out: The results of antibiotic drug inhibiting cancer cell lines (cell viability analysis), MKN-45, MKN-45, repeated experiment
[25] = read-out: The results of antibiotic drug inhibiting cancer cell lines (cell viability analysis), A549, A549, repeated experiment
[26] = read-out: The results of antibiotic drug inhibiting cancer cell lines (cell viability analysis), TSGH-8301, TSGH-8301, repeated experiment
[27] = read-out: The results of antibiotic drug inhibiting cancer cell lines (cell viability analysis), LoVo, repeated experiment
[28] = read-out: The results of antibiotic drug inhibiting cancer cell lines (cell viability analysis), MCF-7, MCF-7, repeated experiment
[29] = read-out: cell viability (survival rate), H1650, drug 10 μM, 72 hours, WST-1, OD450 nm
[30] = read-out: cell viability (survival rate), AGS, drug 10 μM, 72 hours, WST-1, OD450 nm
[31] = read-out: cell viability (survival rate), HeLa, drug 10 μM, 72 hours, WST-1, OD450 nm
[32] = read-out: cell viability (survival rate), A375, drug 10 μM, 72 hours, WST-1, OD450 nm
[33] = read-out: The results of antibiotic drug inhibiting cancer cell lines (cell viability analysis), HepG2, HepG2, repeated experiment
[34] = read-out: cell viability (survival rate), HepG2, drug 10 μM, 72 hours, WST-1, OD450 nm
[35] = read-out: cell viability (survival rate), PC3, drug 10 μM, 72 hours, WST-1, OD450 nm
[36] = read-out: cell viability (survival rate), MKN-45, drug 10 μM, 72 hours, WST-1, OD450 nm
[37] = read-out: cell viability (survival rate), A549, drug 10 μM, 72 hours, WST-1, OD450 nm
[38] = read-out: cell viability (survival rate), TSGH, drug 10 μM, 72 hours, WST-1, OD450 nm
[39] = read-out: cell viability (survival rate), LoVo, drug 10 μM, 72 hours, WST-1, OD450 nm
[40] = read-out: cell viability (survival rate), MCF7, drug 10 μM, 72 hours, WST-1, OD450 nm
[41] = read-out: The results of antibiotic drug inhibiting cancer cell lines (cell viability analysis), A375, A375, repeated experiment

| SMILES | viability [1] | viability at 10 µM [2, 20] | viability at 10 µM (AsPC-1) | viability at 10 µM [3, 21] | viability at 10 µM [4] | viability at 10 µM [5] | viability at 10 µM [6, 22] | viability at 10 µM [7] | viability at 10 µM (TOV-21G) | viability at 10 µM (U-2OS) | viability at 10 µM [8, 23] | viability at 10 µM (BxPC-3) | inhibition effect on different cancer cell lines (cancer cell lines) | viability at 10 µM [9] | viability at 10 µM [10, 24] | viability at 10 µM [11, 25] | viability at 10 µM [12] | viability at 10 µM [13, 26] | viability at 10 µM [14] | viability at 10 µM [15, 27] | also measured |
| --- | --- | --- | --- | --- | --- | --- | --- | --- | --- | --- | --- | --- | --- | --- | --- | --- | --- | --- | --- | --- | --- |
| CN(C)CCCN1c2ccccc2CCc2ccc(Cl)cc21 [Clomipramine hydrochloride (Anafranil), Clomipramine hydrochloride] | 137% | 103% | 77.2% | 122% | 118% | 117% | 113% | 124% | 118% | 58.4% | 91.2% | 78.3% | significant inhibition effect | 135% | 125% | 86.4% | 80.3% | 139% | 51.6% | 65.7% | viability at 10 µM (T24): 109%; viability at 10 µM [16, 28]: 65.9% |
| CN(C)CCC[C@@]1(c2ccc(F)cc2)OCc2cc(C#N)ccc21 [Escitalopram oxalate] | 123% | 92.1% | 80.3% | 145% | 110% | 111% | 126% | 102% | 117% | 62.2% | 120% | 68.1% | significant inhibition effect | 134% | 127% | 103% | 88.8% | 135% | 65.3% | 89.3% | viability at 10 µM [2, 29]: 80.4%; viability at 10 µM (T24): 97.7%; viability at 10 µM [3, 30]: 62.3%; viability at 10 µM [6, 31]: 95%; viability at 10 µM [17, 32]: 68%; viability at 10 µM [18, 33]: 113%; viability at 10 µM [18, 34]: 94%; viability at 10 µM [8, 35]: 79.5%; viability at 10 µM [10, 36]: 116%; viability at 10 µM [11, 37]: 122%; viability at 10 µM [13, 38]: 80.6%; viability at 10 µM [15, 39]: 91.6%; viability at 10 µM [16, 28]: 80.1%; viability at 10 µM [16, 40]: 97.4%; viability at 10 µM [19]: 92.7% |
| CC(=O)NC[C@H]1CN(c2ccc(N3CCOCC3)c(F)c2)C(=O)O1 [Linezolid (Zyvox), Linezolid] | 107% | 95.6% | 92.6% | 104% | 132% | 96.2% | 89.2% | 67.2% | 78.2% | 99.8% | 115% | 95.6% | significant inhibition effect | 99.9% | 137% | 82.1% | 98.6% | 99.7% | 84% | 89.5% | viability at 10 µM [2, 29]: 51.3%; viability at 10 µM [3, 30]: 70.8%; viability at 10 µM [6, 31]: 93.7%; viability at 10 µM [17, 41]: 82.8%; viability at 10 µM [17, 32]: 57.6%; viability at 10 µM [18, 33]: 107%; viability at 10 µM [18, 34]: 91.3%; viability at 10 µM [8, 35]: 67%; viability at 10 µM (NIH: OVCAR-3): 110%; viability at 10 µM [10, 36]: 65.9%; viability at 10 µM [11, 37]: 40.2%; viability at 10 µM [13, 38]: 58.2%; viability at 10 µM [15, 39]: 91%; viability at 10 µM [16, 28]: 73.1%; viability at 10 µM [16, 40]: 66.3%; viability at 10 µM [19]: 129% |
| CCOc1ccc(NC(C)=O)cc1 [Phenacetin] | 102% | 90.1% | 90.5% | 122% | 114% | 91.7% | 110% | 119% | 95.8% | 63.9% | 133% | 73.2% | significant inhibition effect | 106% | 123% | 87.6% | 92% | 128% | 81.9% | 87.7% | viability at 10 µM [2, 29]: 39.1%; viability at 10 µM [3, 30]: 40.4%; viability at 10 µM [6, 31]: 57.2%; viability at 10 µM [17, 41]: 106%; viability at 10 µM [17, 32]: 54.1%; viability at 10 µM [18, 33]: 121%; viability at 10 µM [18, 34]: 72.5%; viability at 10 µM [8, 35]: 40.4%; viability at 10 µM (NIH: OVCAR-3): 105%; viability at 10 µM [10, 36]: 75.1%; viability at 10 µM [11, 37]: 34.4%; viability at 10 µM [13, 38]: 23.3%; viability at 10 µM [15, 39]: 48.5%; viability at 10 µM [16, 28]: 92.9%; viability at 10 µM [16, 40]: 62.7%; viability at 10 µM [19]: 95.3% |
